Laboratory results from PMC11321677, “Reversing MET‐Mediated Resistance in Oncogene‐Driven NSCLC by MET‐Activated Wnt Condensative Prodrug” (Advanced Science, 2024).
Blank lines part the entries; values can stand above or below the compound they belong to. Non-standard residues stand in square brackets, D forms with d. Residues, ends and D or L forms follow the SMILES beside them.

Columns and labels:
[1] = test system: PC-9 OE cell xenografts; assay: PC-9 OE NSCLC cell xenograft mouse model; type: in vivo, BALB/c nude mice; details: PC-9 OE xenograft, 3 mg kg−1 tail vein every two days, five injections
Description: To evaluate the inhibitory impact of WntSI on the Wnt/β‐catenin pathway in vivo, we established a model of PC‐9 OE cell xenografts in BALB/c nude mice (Figure S12A, Supporting Information). […] In addition, we evaluated the drug safety of CA and WntSI, including recording the weight fluctuation of mice during the treatment period as well as the detection of hematological and biochemical indicators (Figure S12F–H, Supporting Information). […] Furthermore, we conducted IHC staining and IHC scoring (Figure 5F,G) to explore the expression of c‐Met, β‐catenin pathway‐associated proteins, as well as Ki67 in the tumor tissues. […] In addition, we closely monitored the fluctuations in body weight among the four groups of mice throughout the course of treatment (Figure 5H).
5×10^6 PC‐9 OE cells were subcutaneously injected into the right flanks of BALB/c nude mice aged 5–6 weeks. The tumor volume was calculated using the equation: volume = 1/2 × length × width^2. Once the tumor volume reached 150–180 mm^3, the mice were randomly grouped. The specific groups are as follows: 1) control (PBS), CA (3 mg kg^−1), and WntSI (3 mg kg^−1); the drug was administered via tail vein every two days for a total five injections; 2) control (normal saline), Gefitinib (25 mg kg^−1 d^−1), Gefitinib combined with Savolitinib (2.5 mg kg^−1 d^−1), and Gefitinib combined with WntSI (3 mg kg^−1, every two days) groups; normal saline, Gefitinib, and Savolitinib were administered by daily gavage, while WntSI was administered via tail vein injection every two days. Tumor growth was monitored daily, and xenografts were collected for formalin‐fixed‐paraffin embedded (FFPE) or snap frozen in liquid nitrogen for subsequent experiments.

[2] = test system: PC-9 OE cells (MET overexpression); assay: alamarBlue cell viability; type: cell-based
Experimental: 1 × 10^8 transducing units (TU) of lentivirus were mixed with 40 µL of HitransG P (PC‐9) or HitransG A (NCI‐H1975) infection enhancement solution and 1 mL of complete medium to infect cells in a 6‐well plate.
In the presented cell experiments, Savolitinib was administered in combination with Gefitinib or Osimertinib at a concentration of 10 µM. The cell viability was determined by alamarBlue assay (Thermo Fisher Scientific).

[3] = test system: PC-9 OE and NCI-H1975 OE cells; assay: Colony formation assay; type: cell-based; details: 7–10 days, n = 3
Experimental: The PC‐9 OE and NCI‐H1975 OE cells were seeded at a low density and cultured in serum‐rich medium containing drugs for 7–10 days to assess clone formation. Subsequently, the culture medium was discarded, and the cell colonies were fixed with methanol, stained with 0.1% crystal violet, and washed with distilled water until the background was clear. The number of colonies was quantified using Image J software.

[4] = target: T1, c-Met (Homo sapiens, UniProt P08581); assay: Biotin affinity purification (pull-down) assay; type: binding; details: biotin-labeled Tyr-Pep on streptavidin magnetic beads, lysed PC-9 OE cells, 4 °C, 6 h, western blotting
T1 construct: host or cells: PC-9 OE (PC-9 cells stably transduced with MET OE lentivirus)
Description: The process was successfully replicated through a coarse‐grained dynamic simulation involving the interaction between Tyr‐Pep and CA molecules, wherein the emergence of LLPS and subsequent self‐assembly into a condensate were observed (Figure 3B). […] Next, the mass ratio of 1:0.5 (Tyr‐Pep to CA) was selected for the preparation of the Wnt supramolecular inhibitor, WntSI, in order to maximize the utilization of condensate size for passive tumor targeting. […] Furthermore, the successful assembly of WntSI was once again confirmed by both Fourier‐transform infrared (FT‐IR) spectrum analysis (Figure S5C, Supporting Information) and UV–vis absorption spectrum analysis (Figure S5D, Supporting Information), providing compelling evidence through the presence of characteristic absorption peaks associated with peptide and CA. More importantly, as our design WntSI was constructed by a reversible supramolecular self‐assembly driven by LLPS, which can disassemble in response to MET (Figure 3A). Alpha Fold 2.0 accurately predicted the strong bonding ability between Tyr‐Pep and c‐Met, as depicted in Figure 3D. This prediction was further substantiated through co‐immunoprecipitation analysis involving biotin‐labeled Tyr‐Pep and c‐Met, as illustrated in Figure S5E (Supporting Information). […] The concentration of CA in their supernatant after centrifugation at 15 000 g was measured using HPLC. […]

T1 sequence (P08581 25-1390): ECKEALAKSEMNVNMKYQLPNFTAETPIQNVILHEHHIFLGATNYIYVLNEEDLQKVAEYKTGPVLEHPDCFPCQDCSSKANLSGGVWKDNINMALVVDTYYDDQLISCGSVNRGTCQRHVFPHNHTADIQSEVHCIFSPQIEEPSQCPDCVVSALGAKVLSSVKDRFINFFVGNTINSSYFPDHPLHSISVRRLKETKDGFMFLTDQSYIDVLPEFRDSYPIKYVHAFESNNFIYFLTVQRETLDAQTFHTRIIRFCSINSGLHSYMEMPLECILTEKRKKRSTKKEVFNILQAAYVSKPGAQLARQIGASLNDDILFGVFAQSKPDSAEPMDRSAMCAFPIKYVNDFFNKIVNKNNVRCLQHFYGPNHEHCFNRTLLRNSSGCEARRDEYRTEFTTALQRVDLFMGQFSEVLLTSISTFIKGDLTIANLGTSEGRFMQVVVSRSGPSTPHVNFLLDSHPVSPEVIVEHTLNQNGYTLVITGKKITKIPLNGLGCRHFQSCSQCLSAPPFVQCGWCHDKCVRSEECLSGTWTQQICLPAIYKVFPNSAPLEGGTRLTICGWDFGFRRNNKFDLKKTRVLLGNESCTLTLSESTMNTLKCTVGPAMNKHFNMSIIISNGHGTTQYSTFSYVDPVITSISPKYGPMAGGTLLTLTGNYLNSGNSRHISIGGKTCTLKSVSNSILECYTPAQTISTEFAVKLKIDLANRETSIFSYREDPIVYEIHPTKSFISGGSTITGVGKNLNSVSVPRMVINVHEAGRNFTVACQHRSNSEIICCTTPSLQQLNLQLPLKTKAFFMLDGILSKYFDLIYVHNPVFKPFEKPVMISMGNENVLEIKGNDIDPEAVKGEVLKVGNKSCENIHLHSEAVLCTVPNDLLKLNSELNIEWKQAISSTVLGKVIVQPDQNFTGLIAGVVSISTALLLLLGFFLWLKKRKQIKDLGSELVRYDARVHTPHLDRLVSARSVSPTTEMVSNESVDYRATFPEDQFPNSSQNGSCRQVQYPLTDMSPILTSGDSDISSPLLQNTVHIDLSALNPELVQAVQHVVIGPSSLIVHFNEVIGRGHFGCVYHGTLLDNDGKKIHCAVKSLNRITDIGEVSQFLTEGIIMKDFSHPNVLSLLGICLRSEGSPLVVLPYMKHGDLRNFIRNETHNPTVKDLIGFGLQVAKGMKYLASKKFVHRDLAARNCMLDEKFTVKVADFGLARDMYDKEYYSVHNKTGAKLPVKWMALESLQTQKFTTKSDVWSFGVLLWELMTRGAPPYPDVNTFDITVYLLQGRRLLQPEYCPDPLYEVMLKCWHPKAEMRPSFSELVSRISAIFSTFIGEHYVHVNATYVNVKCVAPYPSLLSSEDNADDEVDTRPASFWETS

Weight growth rate of mice during treatment ([1]; n = 5): slowed down
Compound: CC(C)c1cc2c(c(O)c1O)[C@@]1(C(=O)O)CCCC(C)(C)[C@@H]1CC2 [CA, carnosic acid]
Levels of ALT and AST ([1]; n = 3): varying degrees of increase
Levels of white blood cells (WBC), neutrophils and platelets ([1]; n = 3): significantly lower than those of the control group

Compound: C[C@@H](c1ccc2nccn2c1)n1nnc2ncc(-c3cnn(C)c3)nc21 [Savolitinib]
Impact on the susceptibility of EGFR-TKIs [2]: negligible impact

Co-immunoprecipitation with c-Met [4]: can be recognized by c‐Met
Compound: CC[C@H](C)[C@H](NC(=O)[C@H](CC(C)C)NC(=O)[C@H](CC(N)=O)NC(=O)[C@@H](NC(=O)[C@@H](CCC(=O)O)NC(=O)[C@@H](Cc1c[nH]cn1)NC(=O)[C@@H](CCC(=O)O)NC(=O)[C@@H](Cc1c[nH]cn1)NC(=O)[C@@H](CCC(=O)O)NC(=O)[C@H](N)Cc1c[nH]cn1)C(C)C)C(=O)N[C@@H](CC(N)=O)C(=O)N[C@@H](Cc1ccc(O)cc1)C(=O)N[C@@H](CCC(N)=O)C(=O)N[C@@H](CC(=O)O)C(=O)N[C@@H](CC(=O)O)C(=O)N[C@@H](C)C(=O)N[C@@H](CCC(=O)O)C(=O)N[C@@H](CC(C)C)C(=O)N[C@H](Cc1c[nH]cn1)C(=O)N[C@H](Cc1c[nH]cn1)C(=O)N[C@H](Cc1c[nH]cn1)C(=O)N[C@H](CCCNC(=N)N)C(=O)N[C@H](CCCNC(=N)N)C(=O)N[C@H](CCCNC(=N)N)C(=O)N[C@H](CCCNC(=N)N)C(=O)N[C@H](Cc1c[nH]cn1)C(N)=O [Tyr‐Pep] (H-[dH][dE][dH][dE][dH][dE]VNLINYQDDAEL[dH][dH][dH][dR][dR][dR][dR][dH]-NH2)
Suppressive effect on clone formation [3]: no impact
